The numbers were not newly measured in patent US20130172260A1, “PREVENTION OF INDWELLING DEVICE RELATED INFECTION: COMPOSITION AND METHODS” (priority 2003, published 2013), which cites them from elsewhere.

In the data set the test system is Staphylococcus epidermidis. The note with it: 5 milli Molar in a medium.

SMILES strings stand for the structures.

For `O=C(O)c1ccccc1O` [salicylic acid], the “inhibited both growth and Biofilm production” value is “up to 55%”.
